From PubChem BioAssay (NCI) come the findings set out here.

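Values below derive from 48-hour exposures of cells grown in 96-well plates, with endpoints linearly interpolated between the two concentrations bracketing the appropriate inhibition level. The concentration for full growth arrest is given as TGI.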 Where a SMILES comes first, the peptide text is derived from it. The star is where a group is joined. X36 = O=C(c1ccc(-c2ccc(Cl)cc2Cl)o1)*

What is called TGI is the concentration giving total growth inhibition. Read a low TGI as more potent growth arrest.

Among the test systems are T-47D breast; SNB-75 CNS; RPMI-8226 leukemia; A498 renal; UACC-62 melanoma; BT-549 breast; MDA-MB-435; OVCAR-4 ovarian; SF-539 CNS; CAKI-1 renal; NCI-H23 lung.
Holding throughout (test): DTP human tumour cell line panel, 48 h

On to `CCC(C)C(NC(=O)CNC(=O)C(Cc1ccccc1)NC(=O)C1CCCN1C(=O)c1ccc(-c2ccc(Cl)cc2Cl)o1)C(=O)OC` (stereo not drawn) (X36-PFGI-OMe; configuration not given here), for which the TGI was greater than 100 µM in the assay on T-47D breast; 69.4 µM with SNB-75 CNS; greater than 100 µM in the assay with RPMI-8226 leukemia; 54.4 µM with A498 renal; greater than 100 µM in the assay with UACC-62 melanoma; greater than 100 µM in the assay on BT-549 breast. Also, the TGI with MDA-MB-435 is greater than 100 µM; with OVCAR-4 ovarian it was greater than 100 µM; with SF-539 CNS, 86.6 µM; with CAKI-1 renal it was greater than 100 µM; in the assay on NCI-H23 lung it was greater than 100 µM.

Regarding `N#Cc1nc(-c2cccs2)oc1N`, the concentration for total growth inhibition (TGI) with T-47D breast, with SNB-75 CNS, in the assay with RPMI-8226 leukemia, in the assay with A498 renal, in the assay on UACC-62 melanoma and with BT-549 breast was greater than 100 µM throughout. Further, the TGI was greater than 100 µM with MDA-MB-435; greater than 100 µM with OVCAR-4 ovarian; greater than 100 µM in the assay on SF-539 CNS; 53.1 µM in the assay on CAKI-1 renal; greater than 100 µM in the assay with NCI-H23 lung.

Turning to `O=C1CCCCC(=O)OC2(CCCCC2=O)CC1` (stereo not drawn), the TGI in the assay on T-47D breast, in the assay on SNB-75 CNS, with RPMI-8226 leukemia, in the assay on A498 renal, in the assay on UACC-62 melanoma and with BT-549 breast was greater than 100 µM in each case. The TGI in the assay on MDA-MB-435, in the assay with OVCAR-4 ovarian, with SF-539 CNS, with CAKI-1 renal and in the assay on NCI-H23 lung was greater than 100 µM throughout.

Consider `O=c1oc2ccccc2c(Nc2ccc3c(c2)Oc2ccccc2O3)c1[N+](=O)[O-]`, for which the TGI in the assay on T-47D breast was 79.1 µM; in the assay on SNB-75 CNS, 30.2 µM; in the assay with RPMI-8226 leukemia, greater than 100 µM; in the assay with A498 renal, 59 µM; in the assay with UACC-62 melanoma, 37.1 µM; in the assay on BT-549 breast it was 64.9 µM. In addition, the TGI is greater than 100 µM in the assay with MDA-MB-435; 67 µM in the assay on OVCAR-4 ovarian; 36.4 µM in the assay on SF-539 CNS; greater than 100 µM with CAKI-1 renal; 46.1 µM in the assay with NCI-H23 lung.

In the case of `CC(=O)O[C@H]1C#C/C=C\C#CC[C@@H]2C(=O)N[C@@H]12`, the TGI in the assay with T-47D breast was greater than 100 µM; in the assay with SNB-75 CNS, greater than 90.7 µM; in the assay with RPMI-8226 leukemia it was greater than 78.1 µM; with A498 renal, 98.9 µM; with UACC-62 melanoma, greater than 100 µM; with BT-549 breast, greater than 86.5 µM. Further, the TGI in the assay on MDA-MB-435 was greater than 100 µM; in the assay with OVCAR-4 ovarian, greater than 100 µM; in the assay on SF-539 CNS, 5.39 µM; with CAKI-1 renal, greater than 40.1 µM; in the assay on NCI-H23 lung it was 60.9 µM.

On to `CCOP(=O)(OCC)c1c(C(=O)OC)cc(=O)[nH]c1-c1ccc(C)cc1`, for which the total growth inhibition concentration (TGI) was determined as 18.1 µM with T-47D breast; 29.3 µM with SNB-75 CNS; 19.8 µM with RPMI-8226 leukemia; 53.8 µM in the assay with A498 renal; 20.4 µM with UACC-62 melanoma; 20.3 µM in the assay on BT-549 breast. In addition, the TGI with MDA-MB-435 turned out to be 37.4 µM; with OVCAR-4 ovarian, 22.5 µM; with SF-539 CNS, 23 µM; in the assay on CAKI-1 renal it was 19 µM; in the assay with NCI-H23 lung, 33.5 µM.

Turning to `CCOC(=O)/C1=C(\C)N(c2ccc(C)cc2)C(=O)c2ccccc2C(=O)c2c(OC(C)=O)ccc(OC(C)=O)c21`, the TGI in the assay with T-47D breast is 76.5 µM; in the assay on SNB-75 CNS, greater than 100 µM; with RPMI-8226 leukemia, 30.3 µM; in the assay on A498 renal, greater than 100 µM; in the assay on UACC-62 melanoma it was 42.1 µM; in the assay on BT-549 breast it was 90.2 µM. Further, the TGI came to 41.5 µM with MDA-MB-435; 54.2 µM with OVCAR-4 ovarian; 69.1 µM with SF-539 CNS; 38.5 µM with CAKI-1 renal; 71.1 µM with NCI-H23 lung.

Turning to `NC(=O)NNC(=O)c1nc[nH]c1[N+](=O)[O-]`, the TGI in the assay on T-47D breast, in the assay on SNB-75 CNS, with RPMI-8226 leukemia, in the assay on A498 renal, in the assay on UACC-62 melanoma and in the assay with BT-549 breast was greater than 100 µM each time. The TGI with MDA-MB-435, with OVCAR-4 ovarian, in the assay with SF-539 CNS, in the assay on CAKI-1 renal and in the assay with NCI-H23 lung was greater than 100 µM in each case.

With `O=C1NC(N/N=C/C(O)C(O)C(O)CO)=N/C1=C\c1ccco1` (stereo not drawn), the TGI in the assay on T-47D breast, in the assay with SNB-75 CNS, in the assay on RPMI-8226 leukemia, in the assay with A498 renal, in the assay with UACC-62 melanoma and in the assay with BT-549 breast was greater than 100 µM throughout. The TGI in the assay with MDA-MB-435, in the assay with OVCAR-4 ovarian, in the assay with SF-539 CNS, in the assay on CAKI-1 renal and with NCI-H23 lung was greater than 100 µM in each case.

Turning to `Cc1ccc([C@H]2CC(=O)C[C@H](c3ccc(C)cc3)C23C(=O)c2ccccc2C3=O)cc1`, the TGI in the assay on T-47D breast is greater than 100 µM; with SNB-75 CNS, 34.1 µM; in the assay on RPMI-8226 leukemia, greater than 100 µM; in the assay on A498 renal it was greater than 100 µM; in the assay on UACC-62 melanoma it was greater than 100 µM; in the assay on BT-549 breast, greater than 100 µM. Besides, the TGI with MDA-MB-435 was greater than 100 µM; in the assay with OVCAR-4 ovarian it was 47.2 µM; in the assay with SF-539 CNS it was greater than 100 µM; in the assay with CAKI-1 renal, greater than 100 µM; in the assay on NCI-H23 lung, greater than 100 µM.

With `O=c1nc2c(c(-c3ccccc3Cl)[nH]1)COC/C2=C\c1ccccc1Cl`, the TGI in the assay with T-47D breast, in the assay with SNB-75 CNS, with RPMI-8226 leukemia, in the assay on A498 renal, in the assay on UACC-62 melanoma and in the assay on BT-549 breast was greater than 100 µM throughout. The TGI with MDA-MB-435, with OVCAR-4 ovarian, in the assay with SF-539 CNS, with CAKI-1 renal and in the assay with NCI-H23 lung was greater than 100 µM each time.

Regarding `CCC1(C)N=C(c2cnccn2)NN1c1ccc(Cl)cc1` (stereo not drawn), the TGI was 74.5 µM in the assay on T-47D breast; greater than 100 µM in the assay on SNB-75 CNS; greater than 100 µM in the assay on RPMI-8226 leukemia; greater than 100 µM in the assay on A498 renal; greater than 100 µM with UACC-62 melanoma; greater than 100 µM in the assay on BT-549 breast. The TGI in the assay with MDA-MB-435, with OVCAR-4 ovarian, in the assay with SF-539 CNS, with CAKI-1 renal and in the assay with NCI-H23 lung was greater than 100 µM throughout.

Take `CCOC(=O)/C=C(\C(=O)OCC)n1cc(C)c(=O)n(Cc2cnnn2CCCCOC(C)=O)c1=O`: the TGI was greater than 51 µM in the assay with T-47D breast; 38.3 µM in the assay on SNB-75 CNS; greater than 26.7 µM in the assay with RPMI-8226 leukemia; 37.5 µM in the assay on A498 renal; 31.7 µM in the assay on UACC-62 melanoma; 22.6 µM in the assay on BT-549 breast. The TGI is 26.1 µM with MDA-MB-435; 58 µM with OVCAR-4 ovarian; 5.66 µM in the assay with SF-539 CNS; 8.73 µM in the assay on CAKI-1 renal; 36.8 µM with NCI-H23 lung.

As to `O=C(NCCCCCCNCc1cccc2ccccc12)Nc1cccc2ccccc12`, the TGI in the assay on T-47D breast, with SNB-75 CNS, in the assay with RPMI-8226 leukemia, with A498 renal, in the assay with UACC-62 melanoma and in the assay with BT-549 breast was greater than 100 µM throughout. For the same molecule, the TGI in the assay with MDA-MB-435, in the assay with OVCAR-4 ovarian, with SF-539 CNS, with CAKI-1 renal and in the assay on NCI-H23 lung was greater than 100 µM each time.

As to `CCCSc1ccc2[nH]c(/N=C/c3ccco3)cc2c1`, the TGI was greater than 100 µM in the assay with T-47D breast; greater than 100 µM in the assay on SNB-75 CNS; 1.4 µM with RPMI-8226 leukemia; greater than 100 µM with A498 renal; greater than 100 µM in the assay on UACC-62 melanoma; greater than 100 µM in the assay with BT-549 breast. Besides, the TGI with MDA-MB-435 was greater than 100 µM; in the assay on OVCAR-4 ovarian, greater than 100 µM; with SF-539 CNS, 42.5 µM; with CAKI-1 renal, greater than 100 µM; with NCI-H23 lung, greater than 100 µM.

Regarding `O=c1c2ncn(COCCCl)c2n(-c2ccccc2)c(=S)n1-c1ccccc1`, the TGI with T-47D breast, in the assay on SNB-75 CNS, in the assay on RPMI-8226 leukemia, in the assay with A498 renal, with UACC-62 melanoma and in the assay on BT-549 breast was greater than 100 µM each time. Besides, the TGI in the assay on MDA-MB-435, with OVCAR-4 ovarian, in the assay with SF-539 CNS, with CAKI-1 renal and in the assay with NCI-H23 lung was greater than 100 µM each time.

Turning to `COc1ccc(/C=N/N=C(\N)NO)c(O)c1`, the TGI was greater than 10 µM in the assay on T-47D breast; 2.42 µM in the assay on SNB-75 CNS; greater than 10 µM in the assay with RPMI-8226 leukemia; greater than 10 µM in the assay on A498 renal; greater than 10 µM in the assay on UACC-62 melanoma; greater than 10 µM in the assay on BT-549 breast. In addition, the TGI in the assay on MDA-MB-435 was 4.49 µM; with OVCAR-4 ovarian, greater than 10 µM; in the assay on SF-539 CNS, greater than 10 µM; in the assay with CAKI-1 renal, 9.58 µM; in the assay with NCI-H23 lung, greater than 10 µM.

Consider `CNC(=O)Oc1ccc(-c2cn3cc(OC(=O)NC)ccc3n2)cc1`, for which the concentration for total growth inhibition (TGI) in the assay on T-47D breast is greater than 100 µM; with SNB-75 CNS, greater than 100 µM; in the assay with RPMI-8226 leukemia, 81.9 µM; in the assay on A498 renal, greater than 100 µM; in the assay on UACC-62 melanoma, greater than 100 µM; with BT-549 breast, greater than 100 µM. Moreover, the TGI in the assay on MDA-MB-435, in the assay with OVCAR-4 ovarian, in the assay on SF-539 CNS, with CAKI-1 renal and in the assay on NCI-H23 lung was greater than 100 µM throughout.
